Results reported in US9682960B2 (priority 2013, dated 2017).
Several values for one entry are separate records, joined by “and”; a condition that tells them apart may be missing. Equal entries are not always repeated. Where two headings read alike, the source gives them in different places.

Experiments:
[1] = system: Shionogi mouse mammary carcinoma cells; assay: In vitro androgenic/antiandrogenic activity: proliferation of Shionogi cells with or without DHT; format: cell-based
Human Androgen Receptor = Human Androgen Receptor (Homo sapiens (Human), UniProt P10275); assay: Androgen receptor assay: [3H]R1881 displacement, cytosol of HEK-293 cells transfected with hAR (hydroxylapatite assay); format: binding; conditions: for Human Androgen Receptor Binding RBA (%) R1881 = 100: relative binding affinity; for times more potent than OH-flutamide on the human AR (RBA ratio): versus hydroxyflutamide
[2] = system: PSA levels in human prostatic carcinoma LNCaP cells; assay: Prostate specific antigen (PSA) in LNCaP cells with or without R1881; format: cell-based
Procedure: LNCaP cells were cultured as previously described (Qi et al. 2001). In brief, the LNCaP cells were cultured for 6 days in 1.0 ml RPMI 1640 supplemented with hormone-depleted 0.25% FCS before each experiment. At the start of the experiment, half of the medium (0.5 ml) was replaced with 0.5 ml of identical medium containing the appropriate concentrations of tested compounds, in the presence or absence of 1.0 nM of R1881. After 72 h of incubation of LNCaP cells with compounds, 0.5 ml of culture medium was removed for PSA determination. PSA levels were measured using the PSA [^125I] IRMA KIT (REF: RK-10CT) from Izotop (Institute of Isotopes Ltd, Budapest, Hungary).

[3] = system: castrated (CX) immature male rats; assay: Systemic androgenic (agonistic) activity in orchidectomized (CX) immature male rats; format: in vivo, rat
Androgen Receptor = assay: Overall classification (antiandrogen / SARM) in the models studied
[4] = Mus musculus, read-out: Shionogi Antiandrogenic Activity IC50, DHT (0.3 nM)-stimulated cell number
[5] = 0.1 mg/rat/po, 7 days, bulbocavernosus muscles weight
[6] = 0.1 mg/rat/po, 7 days, seminal vesicles weight
[7] = 0.1 mg/rat/po, 7 days, ventral prostate weight

Human Androgen Receptor, sequence (P10275 whole entry): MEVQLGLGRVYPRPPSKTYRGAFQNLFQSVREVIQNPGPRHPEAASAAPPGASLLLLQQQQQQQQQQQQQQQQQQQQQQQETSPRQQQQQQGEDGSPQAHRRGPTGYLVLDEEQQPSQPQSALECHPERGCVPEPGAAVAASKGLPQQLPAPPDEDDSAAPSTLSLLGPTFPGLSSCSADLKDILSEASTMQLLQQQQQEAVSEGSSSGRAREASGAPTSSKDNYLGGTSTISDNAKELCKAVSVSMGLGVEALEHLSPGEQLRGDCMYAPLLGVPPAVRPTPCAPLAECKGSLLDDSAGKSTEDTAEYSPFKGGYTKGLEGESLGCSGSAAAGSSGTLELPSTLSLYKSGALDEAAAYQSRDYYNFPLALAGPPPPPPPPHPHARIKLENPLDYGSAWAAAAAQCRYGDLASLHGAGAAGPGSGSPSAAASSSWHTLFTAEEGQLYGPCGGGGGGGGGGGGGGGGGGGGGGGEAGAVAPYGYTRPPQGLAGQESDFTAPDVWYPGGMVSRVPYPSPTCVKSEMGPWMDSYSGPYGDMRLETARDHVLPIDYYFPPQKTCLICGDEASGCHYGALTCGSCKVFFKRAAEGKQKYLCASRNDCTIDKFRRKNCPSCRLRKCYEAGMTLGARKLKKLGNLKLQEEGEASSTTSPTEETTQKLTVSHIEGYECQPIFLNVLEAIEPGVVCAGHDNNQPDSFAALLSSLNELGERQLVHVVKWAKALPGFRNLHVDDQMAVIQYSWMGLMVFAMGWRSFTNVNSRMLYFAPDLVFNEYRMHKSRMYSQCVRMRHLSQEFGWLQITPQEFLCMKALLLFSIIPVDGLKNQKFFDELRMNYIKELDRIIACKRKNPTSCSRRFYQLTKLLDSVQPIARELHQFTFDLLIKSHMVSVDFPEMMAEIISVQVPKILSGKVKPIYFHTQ

SMILES | IC50 [1, 4] [nM] | Human Androgen Receptor Binding RBA (%) R1881 = 100 (Human Androgen Receptor; […]) | CX Agonistic activity % Stimulation Bulbo [3, 5] | CX Agonistic activity % Stimulation SV [3, 6] | CX Agonistic activity % Stimulation Prostate [3, 7] | further results
CCNCc1ccc(OCCCN2C(=S)N(c3ccc(C#N)c(C(F)(F)F)c3)C(=O)C2(C)C)cc1 [EM-7148, reference compound] |  |  |  |  |  | IC50 ([1]; DHT (0.3 nM)-stimulated cell number, read-out: Shionogi Antiandrogenic Activity IC50): 9.2 nM; Human Androgen Receptor Binding RBA (%) R1881 = 100 (Human Androgen Receptor; transfected cells): 11% and 11 ± 1%; LNCaP Cells Antiandrogenic activity (PSA) % inhibition at 10^−7M ([2]; R1881-stimulated, 10^−7M of compound): 33%
CC1(C)C(=O)N(c2ccc(C#N)c(C(F)(F)F)c2)C(=S)N1CCCOc1ccc2cnccc2c1 [EM-9021] | 5 | 166.8% | 9% | 0% | 1% | 
CC1(C)C(=O)N(c2ccc(C#N)c(C(F)(F)F)c2)C(=S)N1CCCOc1ccc2c(ccc[n+]2[O-])c1 [EM-9028] | 2.6 |  | 1% | 2% | 2% | stimulation at 10^−7M on basal Shionogi cell proliferation (in words) ([1]; basal (no DHT), 10^−7M): none of these compounds has any activity; Human Androgen Receptor Binding RBA (%) R1881 = 100 (Human Androgen Receptor; transfected cells): 25.3%
Cc1c(N2C(=O)C(C)(C)N(CCCOc3ccc(-c4cc[n+]([O-])cc4)c(Cl)c3)C2=S)ccc(C#N)c1Cl [EM-9036] | > 100 | 131% |  |  |  | CX Agonistic activity % Stimulation Bulbo ([3]; 0.02 mg/rat po): 142 (0.02 mg/rat) %; CX Agonistic activity % Stimulation Prostate ([3]; 0.02 mg/rat po): 24 (0.02 mg/rat) %; CX Agonistic activity % Stimulation SV ([3]; 0.02 mg/rat po): 24 (0.02 mg/rat) %
CC1(C)C(=O)N(c2ccc(C#N)c(Cl)c2)C(=S)N1CCCOc1ccc(-c2ccncc2)cc1Cl [EM-9052] | 61 |  |  |  |  | times more binding to the human androgen receptor than the corresponding hydantoin (Human Androgen Receptor; thiohydantoin versus hydantoin (EM-9052 vs EM-9150; EM-7105 vs EM-7333)): 27 times; inhibition at 0.1 µM ([2]; Homo sapiens, LNCaP, read-out: LNCaP Cells Antiandrogenic activity (PSA) % inhibition at 10^−7M, R1881-stimulated, 10^−7M of compound): 26%
Cc1ccc2cc(OCCCN3C(=O)N(c4ccc(C#N)c(C(F)(F)F)c4)C(=O)C3(C)C)ccc2n1 [EM-9090] | 33.1 | 2.5% | 11% | 0% | 1% | 
Cc1ccc2cc(OCCCN3C(=O)N(c4ccc(C#N)c(C(F)(F)F)c4)C(=O)C3(C)C)ccc2[n+]1[O-] [EM-9093] | 23.1 | 0.6% | 9% | 0% | 0% | 
CC1(C)C(=O)N(c2ccc(C#N)c(Cl)c2)C(=O)N1CCCOc1ccc(-c2ccncc2)cc1 [EM-9116] | 17 ± 5 | 9.2 ± 1.9 (n = 5) % |  |  |  | affinity for the androgen receptor (in words) (Human Androgen Receptor; SAR discussion): higher affinity; classification as antiandrogen or SARM (in words) (Androgen Receptor): better antiandrogens
Cc1c(N2C(=O)N(CCCOc3ccc(-c4ccncc4)c(F)c3)C(C)(C)C2=O)ccc(C#N)c1Cl [EM-9253] | 29.9 | 125% | 114±18% and 114 ± 18 (n = 2) % | 18 ± 2 (n = 2) % | 34 ± 1 (n = 2) % | times more potent than OH-flutamide on the human AR (RBA ratio) (Human Androgen Receptor): 595 times
Cc1c(N2C(=O)N(CCCOc3ccc(-c4cc[n+]([O-])cc4)c(F)c3)C(C)(C)C2=O)ccc(C#N)c1Cl [EM-9254] | 54.8 |  | 101 ± 5 (n = 3) % | 23 ± 1 (n = 3) % | 47 ± 6 (n = 3) % | Human Androgen Receptor Binding RBA (%) R1881 = 100 (Human Androgen Receptor; transfected cells): 38.8%
Cc1c(N2C(=O)N(CCCOc3ccc(-c4ccncc4)c(Cl)c3)C(C)(C)C2=O)ccc(C#N)c1Cl [EM-9290] | 64.8 |  | 88±2% and 88 ± 12 (n = 2) % | 16 ± 2 (n = 2) % | 39 ± 6 (n = 2) % | % of stimulation at 10^−7M on basal Shionogi cells ([1]; basal (no DHT), 10^−7M): 25%; Human Androgen Receptor Binding RBA (%) R1881 = 100 (Human Androgen Receptor; transfected cells): 197%; times more potent than OH-flutamide on the human AR (RBA ratio) (Human Androgen Receptor): 938 times
Cc1c(N2C(=O)N(CCCOc3ccc(-c4cc[n+]([O-])cc4)c(Cl)c3)C(C)(C)C2=O)ccc(C#N)c1Cl [EM-9291] | 75.5 |  | 91 ± 2 (n = 2) % | 21 ± 7 (n = 2) % | 47 ± 7 (n = 2) % | Human Androgen Receptor Binding RBA (%) R1881 = 100 (Human Androgen Receptor; transfected cells): 64.2%
Cc1c(N2C(=O)N(CCCOc3ccc(-c4ccncc4)cc3F)C(C)(C)C2=O)ccc(C#N)c1Cl [EM-9297] | 72.8 | 101% | 120% | 26% | 31% | 
Cc1c(N2C(=O)N(CCCOc3ccc(-c4ccncc4)cc3)C(C)(C)C2=O)ccc(C#N)c1Cl [EM-9300] | 62.2 | 77.8% | 127 ± 8 (n = 2) % | 25 ± 2 (n = 2) % | 40 ± 3 (n = 2) % | 
Cc1c(N2C(=O)N(CCCOc3ccc(-c4cc[n+]([O-])cc4)cc3F)C(C)(C)C2=O)ccc(C#N)c1Cl [EM-9301] | 55.7 | 34.6% | 104 ± 17 (n = 2) % | 29 ± 2 (n = 2) % | 42 ± 1 (n = 2) % | 
Cc1c(N2C(=O)N(CCCOc3ccc4ccc[n+]([O-])c4c3)C(C)(C)C2=O)ccc(C#N)c1Cl [EM-9302] | 110 | 1.3% | 57% | 8% | 29% | 
Cc1c(N2C(=O)N(CCCOc3ccc(-c4cc[n+]([O-])cc4)cc3)C(C)(C)C2=O)ccc(C#N)c1Cl [EM-9305] | 32.3 | 26.2% | 110 ± 5 (n = 2) % | 28 ± 3 (n = 2) % | 34 ± 5 (n = 2) % | 
Cc1c(N2C(=O)N(CCCOc3ccc(-c4ccncc4)cc3C(F)(F)F)C(C)(C)C2=O)ccc(C#N)c1Cl [EM-9309] | 66.9 | 157% | 107±9% and 107 ± 9 (n = 2) % | 24 ± 2 (n = 2) % | 36 ± 1 (n = 2) % | % of stimulation at 10^−7M on basal Shionogi cells ([1]; basal (no DHT), 10^−7M): 13%; times more potent than OH-flutamide on the human AR (RBA ratio) (Human Androgen Receptor): 748 times
Cc1c(N2C(=O)N(CCCOc3ccc(-c4ccncc4Cl)cc3)C(C)(C)C2=O)ccc(C#N)c1Cl [EM-9310] | 60 | 92.8% | 109 ± 9 (n = 2) % | 18 ± 2 (n = 2) % | 44 ± 7 (n = 2) % | 
Cc1c(N2C(=O)N(CCCOc3ccc(-c4ccncc4F)cc3)C(C)(C)C2=O)ccc(C#N)c1Cl [EM-9311] | > 100 | 89.0% | 119 ± 8 (n = 2) % | 24 ± 3 (n = 2) % | 39 ± 1 (n = 2) % | 
Cc1c(N2C(=O)N(CCCOc3ccc(-c4cc[n+]([O-])cc4Cl)cc3)C(C)(C)C2=O)ccc(C#N)c1Cl [EM-9313] | > 100 | 34.1% | 88 ± 2 (n = 2) % | 14 ± 9 (n = 2) % | 36 ± 2 (n = 2) % | 
Cc1c(N2C(=O)N(CCCOc3ccc(-c4cc[n+]([O-])cc4F)cc3)C(C)(C)C2=O)ccc(C#N)c1Cl [EM-9318] | 100 |  | 92 ± 27 (n = 2) % | 14 ± 9 (n = 2) % | 42 ± 3 (n = 2) % | Human Androgen Receptor Binding RBA (%) R1881 = 100 (Human Androgen Receptor; transfected cells): 46.1%
Cc1c(N2C(=O)N(CCCOc3ccc(-c4cc[n+]([O-])cc4)cc3C(F)(F)F)C(C)(C)C2=O)ccc(C#N)c1Cl [EM-9319] | 97.8 | 9.6% | 110 ± 10 (n = 2) % | 17 ± 10 (n = 2) % | 39 ± 2 (n = 2) % | 
Cc1c(N2C(=O)N(CCCOc3ccc(-c4ccncc4)c(C(F)(F)F)c3)C(C)(C)C2=O)ccc(C#N)c1Cl [EM-9333] | 73 | 64.1% | 93 ± 23 (n = 2) % | 19 ± 5 (n = 2) % | 38 ± 2 (n = 2) % | 
Cc1c(N2C(=O)N(CCCOc3ccc(-c4cc[n+]([O-])cc4)c(C(F)(F)F)c3)C(C)(C)C2=O)ccc(C#N)c1Cl [EM-9334] | 28.9 | 17.8% | 86% | 17% | 30% | 
